In patent US20070116713A1, “Compositions and methods for reducing or controlling blood cholesterol, lipoproteins, triglycerides and atherosclerosis” (priority 2005, published 2007):

Assay: Case study: subjects taking capsules of the exemplary composition with exercise and low-fat diet; total cholesterol, triglycerides, LDL, HDL tracked
Format: in vivo, humans
Settings: in two of the subjects; removed from the formulation
Source text: An initial study included 34 subjects. The subjects were advised to exercise and follow a strict low-fat diet, in addition to consuming doses of the exemplary composition. The subjects were tracked from 8 to 24 months.
It is contemplated within the scope of the invention to provide alternate formulations which eliminate nicotinic acid for use by those persons who cannot tolerate it.

O=C(O)c1cccnc1 [nicotinic acid]
tolerability of nicotinic acid in the formulation: not tolerated
